Each structure is given as a SMILES string. Where a name gives a salt, the structure may show the parent alone.

For one data set, the target named is Na+, K+-ATPase (Canis lupus familiaris, UniProt P50997). In words: biochemical. Also noted: species or system dog. As to conditions: Na+, K+-ATPase Inhibition IC50.
In turn, `C=C1C[C@H]2[C@@H]3CCC(=O)[C@@]3(C)CC[C@@H]2[C@@]2(C)CCC(=NOCCNC)C[C@]12O` (mixture of isomers) [I-cg, (E,Z) 3-(2-N-Methylaminoethoxyimino)-5α-hydroxy-6-methylenandrostan-17-one hydrochloride] returned an IC50 of 2600 nM.

The compound `CC12CCC3C(C(=C(F)F)CC4CC(=NOCCN)CCC43C)C1CCC2=O` (mixture of isomers) [I-ep, (E,Z) 3-(2-Aminoethoxyimino)-7-difluoromethyleneandrostane-17-one hydrochloride] returned a 50% inhibitory concentration (IC50) of 87 nM.

In turn, `CC1CC2C3CCC(=O)C3(C)CCC2C2(C)CCC(=NOCCN)CC12` (single isomer, unassigned) [I-az, (E,Z) 3-(2-Aminoethoxyimino)-6β-methylandrostan-17-one hydrochloride] displayed a half-maximal inhibitory concentration (IC50) of 6000 nM.

The compound `CC12CCC3C(CC(=CC#N)C4CC(=NOCCN)CCC43C)C1CCC2=O` (stereo not shown) [I-bi, (E) 3-(2-Aminoethoxyimino)-17-oxoandrostane-6-(E)-ylideneacetonitrile hydrochloride] registered a half-maximal inhibitory concentration (IC50) of 1700 nM.

The compound `C=C1C[C@@H]2[C@H](CC[C@]3(C)C(=O)CC[C@@H]23)[C@@]2(C)CC/C(=N\OCCCNC)C[C@H]12` [I-cj, (E) 3-(3-N-Methylaminopropoxyimino)-6-methyleneandrostan-17-one fumarate] displayed an IC50 of 380 nM.

The compound `C=C1CC2C3CCC(=O)C3(C)CCC2C2(C)CCC(=NOCCCNC)CC12` (mixture of isomers) [I-ck, (E,Z) 3-(3-N-Methylaminopropoxyimino)-6-methyleneandrostane-17-one fumarate] yielded an IC50 of 570 nM.

In turn, `C#CC1CC2C3CCC(=O)C3(C)CCC2C2(C)CCC(=NOCCCNC)CC12` (stereo not drawn) [I-cq, (E,Z) 3-(3-N-Methylaminopropoxyimino)-6α-ethynylandrostan-17-one hydrochloride] displayed a concentration for half-maximal inhibition (IC50) of 1200 nM.

In the case of `C=C1C[C@H]2[C@@H]3CCC(=O)[C@@]3(C)CC[C@@H]2[C@@]2(C)CCC(=NOCCCNC)C[C@]12O` (mixture of isomers) [I-ct, (E,Z) 3-(3-N-Methylaminopropoxyimino)-5α-hydroxy-6-methylenandrostan-17-one hydrochloride], the half-inhibitory concentration (IC50) is 1400 nM.

With `C[C@]12CCC(=NOCCN)C[C@@H]1C(=C(F)F)C[C@@H]1[C@@H]2CC[C@]2(C)C(=O)CC[C@@H]12` (mixture of isomers) [I-bh, (E,Z) 3-(2-Aminoethoxyimino)-6-difluoromethyleneandrostan-17-one hydrochloride], the midpoint of inhibition, the IC50, lay at 190 nM.

Compound `C/C=C1\C[C@@H]2[C@H](CC[C@]3(C)C(=O)CC[C@@H]23)[C@@]2(C)CCC(=NOCCN)C[C@H]12` (mixture of isomers) [I-bg, (E,Z) 3-(2-Aminoethoxyimino)-6-(E)-ethylidenandrostan-17-one hydrochloride] registered an IC50 of 1100 nM.

The same data set, now with this note: dog kidney enzyme; read-out: Na+, K+-ATPase Inhibition IC50.
With `CNCCCON=C1CC[C@@]2(C)[C@H](C1)[C@@H](CO)C[C@@H]1[C@@H]2CC[C@]2(C)C(=O)CC[C@@H]12` (mixture of isomers) [I-cl, (E,Z) 3-(3-N-Methylaminopropoxyimino)-6α-hydroxymethylandrostan-17-one hydrochloride], the 50% inhibitory concentration (IC50) stood at 690 nM.

Regarding `COCC1CC2CC(=NOCCN)CCC2(C)C2CCC3(C)C(=O)CCC3C12` (mixture of isomers) [I-ed, (E,Z) 3-(2-Aminoethoxyimino)-7α-methoxymethylandrostane-17-one hydrochloride], the half-inhibitory concentration (IC50) was determined as 38000 nM.

As to `CC12CCC3C(CC(CNC=O)C4CC(=NOCCN)CCC43C)C1CCC2=O` (mixture of isomers) [I-bn, (E,Z) 3-(2-Aminoethoxyimino)-6α-formamidomethylandrostane-17-one hydrochloride], the IC50 amounted to 5100 nM.

In the case of `COC[C@H]1C[C@@H]2[C@H](CC[C@]3(C)C(=O)CC[C@@H]23)[C@@]2(C)CC/C(=N\OCCN)CC12` (stereo partly drawn) [I-aq, (E) 3-(2-Aminoethoxyimino)-6α-methoxymethylandrostan-17-one hydrochloride], the half-maximal inhibitory concentration (IC50) was found to be 500 nM.

With `CNCCCON=C1CCC2(C)C3CCC4(C)C(=O)CCC4C3CC3(CC3)C2C1` (mixture of isomers) [I-cp, (E,Z) 3-(3-N-Methylaminopropoxyimino)-6-(spirocyclopropane)androstan-17-one hydrochloride], the half-maximal inhibitory concentration (IC50) was 1300 nM.

On to `CNCCCOC1CCC2(C)C(C1)C(CO)CC1C3CCC(=O)C3(C)CCC12` (stereo not drawn) [I-du, 3β-(3-N-Methylaminopropoxy)-6α-hydroxymethylandrostane-17-one fumarate], for which the 50% inhibitory concentration (IC50) was determined as 1100 nM.

In the case of `COCC1CC2C3CCC(=O)C3(C)CCC2C2(C)CCC(=NOCCN)CC12` (mixture of isomers) [I-ak, (E,Z) 3-(2-Aminoethoxyimino)-6β-methoxymethylandrostan-17-one hydrochloride], the concentration for half-maximal inhibition (IC50) was 3000 nM.

`CC12CCC3C(CC(C#N)C4CC(=NOCCN)CCC43C)C1CCC2=O` (mixture of isomers) [I-ac, (E,Z) 3-(2-Aminoethoxyimino)-6α-cyanoandrostan-17-one fumarate]: the IC50 came out at 1100 nM.

For the compound `CNCCCON=C1CC[C@@]2(C)[C@H](C1)[C@@H](C(N)=O)C[C@@H]1[C@@H]2CC[C@]2(C)C(=O)CC[C@@H]12` (mixture of isomers) [I-cn, (Z,E) 3-(3-N-Methylaminopropoxyimino)-6α-carbamoylandrostan-17-one hydrochloride], the IC50 is 1900 nM.

With `CNCCCON=C1CC[C@@]2(C)[C@H](C1)C[C@H](CO)[C@@H]1[C@@H]2CC[C@]2(C)C(=O)CC[C@@H]12` (mixture of isomers) [I-cw, (E,Z) 3-(3-N-Methylaminopropoxyimino)-7β-hydroxymethylandrostane-17-one hydrochloride], the IC50 was found to be 2300 nM.

With `CC12CCC3C(CC(C(=O)O)C4CC(=NOCCN)CCC43C)C1CCC2=O` (mixture of isomers) [I-ar, (E,Z) 3-(2-Aminoethoxyimino)-6α-carboxyandrostan-17-one hydrochloride], the IC50 came to 16000 nM.

As for `CC(=O)N[C@H]1C[C@@H]2[C@H](CC[C@]3(C)C(=O)CC[C@@H]23)[C@@]2(C)CCC(=NOCCN)C[C@H]12` (mixture of isomers) [I-bf, (E,Z) 3-(2-Aminoethoxyimino)-6α-acetamidoandrostan-17-one hydrochloride], the IC50 was 45000 nM.

Consider `C=CCON=C1CC2C3CCC(=O)C3(C)CCC2C2(C)CCC(=NOCCN)CC12` (stereo not shown) [I-ay, (E,Z)-3-(2-Aminoethoxyimino)-6-(E)-allyloxyiminoandrostan-17-one fumarate], for which the IC50 came to 43000 nM.

As for `CCON=C1CC2C3CCC(=O)C3(C)CCC2C2(C)CCC(=NOCCN)CC12` (mixture of isomers) [I-ax, (E,Z)-3-(2-Aminoethoxyimino)-6-(E)-ethoxyiminoandrostan-17-one hydrochloride], the IC50 is 1700 nM.

Still in this data set, the particulars now being: read-out: Na+, K+-ATPase Inhibition IC50.
In the case of `C[C@]12CCC(=NOCCN)CC1C1(CC1)C[C@@H]1[C@@H]2CC[C@]2(C)C(=O)CC[C@@H]12` (stereo partly shown) [I-bl, E,Z) 3-(2-Aminoethoxyimino)-6-(spirocyclopropane)androstane-17-one hydrochloride], the IC50 worked out at 850 nM.

On to `C=C1C[C@@H]2[C@H](CC[C@]3(C)C(=O)CC[C@@H]23)[C@@]2(C)CCC(=NOCCN)CC12` (stereo partly shown) [I-ah, (E,Z) 3-(2-Aminoethoxyimino)-6-methyleneandrostan-17-one hydrochloride], for which the IC50 amounted to 42 nM.

As to `C=C1C[C@@H]2[C@H](CC[C@]3(C)C(=O)CC[C@@H]23)[C@@]2(C)CC[C@@H]([S@@+]([O-])CCCN)CC12` (stereo partly drawn) [I-eb, 3α-[(S)-3-Aminopropylsulfinyl]-6-methyleneandrostane-17-one fumarate], the IC50 was 7200 nM.

Turning to `CC12CCC3C(CC(C(N)=O)C4CC(=NOCCN)CCC43C)C1CCC2=O` (mixture of isomers) [I-at, (E,Z) 3-(2-Aminoethoxyimino)-6α-carbamoylandrostan-17-one fumarate], the half-maximal inhibitory concentration (IC50) came out at 630 nM.

For the compound `C[C@]12CC[C@H](/C=C\CCN)CC1/C(=N/O)C[C@@H]1[C@@H]2CC[C@]2(C)C(=O)CC[C@@H]12` (stereo partly drawn) [I-de, 3β-(4-Aminobut-1-(Z)-enyl)-6-(E)-hydroxyiminoandrostane-17-one fumarate], the IC50 turned out to be 1200 nM.

On to `C[C@]12CCC(=NOCCN)CC1[C@@H](C=NO)C[C@@H]1[C@@H]2CC[C@]2(C)C(=O)CC[C@@H]12` (stereo partly drawn) [I-an, 3-(E,Z)-(2-Aminoethoxyimino)-17-oxoandrostane-6α-carbaldehyde (E,Z)-oxime fumarate], for which the concentration for half-maximal inhibition (IC50) turned out to be 390 nM.

As for `CC(C)(CN)ON=C1CC[C@@]2(C)C(C1)/C(=N/O)C[C@@H]1[C@@H]2CC[C@]2(C)C(=O)CC[C@@H]12` (stereo partly shown) [I-eo, (E,Z) 3-(3-Amino-2-methyl-2-propoxyimino)-6-(E)-hydroxyiminoandrostane-17-one hydrochloride], the IC50 stood at 20 nM.

With `C[C@]12CCC(=NOCCN)CC1C[C@@H](NC=O)[C@@H]1[C@@H]2CC[C@]2(C)C(=O)CC[C@@H]12` (stereo partly drawn) [I-bw, (E,Z)-3-(2-Aminoethoxyimino)-7α-formamidoandrostane-3,17-dione hydrochloride], the IC50 came out at 6000 nM.

Turning to `CNCCCON=C1CC[C@@]2(C)C(C1)[C@@H](CO)C(=O)[C@@H]1[C@@H]2CC[C@]2(C)C(=O)CC[C@@H]12` (stereo partly drawn) [I-ei, (E,Z) 3-(3-N-Methylaminopropoxyimino)-6α-hydroxymethylandrostane-7,17-dione fumarate], the IC50 turned out to be 44 nM.

`CC(=O)NC[C@H]1C[C@@H]2[C@H](CC[C@]3(C)C(=O)CC[C@@H]23)[C@@]2(C)CCC(=NOCCN)CC12` (stereo partly drawn) [I-bm, (E,Z) 3-(2-Aminoethoxyimino)-6α-acetamidomethylandrostan-17-one hydrochloride]: the 50% inhibitory concentration (IC50) came out at 3600 nM.

The subject of another data set is anesthetized guinea-pig. In words: Inotropic effect and lethal dose, slow intravenous infusion (over 90 minutes) in anesthetized guinea-pig. Conditions: Cavia porcellus, iv, 1.5 h, read-out: ED80 (inotropic potency, dose increasing +dP/dTmax by 80%).
With `CNCCCON=C1CC[C@@]2(C)[C@H](C1)[C@@H](CO)C[C@@H]1[C@@H]2CC[C@]2(C)C(=O)CC[C@@H]12` (mixture of isomers) [I-cl, (E,Z) 3-(3-N-Methylaminopropoxyimino)-6α-hydroxymethylandrostan-17-one hydrochloride], the ED80 is 1.54 µmol/kg.

The same data set, now with this note: Cavia porcellus, iv, 1.5 h, read-out: EDmax (dose inducing maximum positive inotropic effect).
In the case of `CNCCCON=C1CC[C@@]2(C)[C@H](C1)[C@@H](CO)C[C@@H]1[C@@H]2CC[C@]2(C)C(=O)CC[C@@H]12` (mixture of isomers) [I-cl, (E,Z) 3-(3-N-Methylaminopropoxyimino)-6α-hydroxymethylandrostan-17-one hydrochloride], the ED (max) came to 8.95 µmol/kg.

Staying with this data set, now noted: Cavia porcellus, iv, 1.5 h, read-out: Emax % increase in +dP/dTmax.
As to `CNCCCON=C1CC[C@@]2(C)[C@H](C1)[C@@H](CO)C[C@@H]1[C@@H]2CC[C@]2(C)C(=O)CC[C@@H]12` (mixture of isomers) [I-cl, (E,Z) 3-(3-N-Methylaminopropoxyimino)-6α-hydroxymethylandrostan-17-one hydrochloride], the Emax was 263%.

Staying with this data set, now noted: calculated in the died animals.
Regarding `CNCCCON=C1CC[C@@]2(C)[C@H](C1)[C@@H](CO)C[C@@H]1[C@@H]2CC[C@]2(C)C(=O)CC[C@@H]12` (mixture of isomers) [I-cl, (E,Z) 3-(3-N-Methylaminopropoxyimino)-6α-hydroxymethylandrostan-17-one hydrochloride], the “Lethal dose/ED80 (safety ratio)” value was 27.6.

Still in this data set, the particulars now being: maximum dose infused in the survived animals.
`CNCCCON=C1CC[C@@]2(C)[C@H](C1)[C@@H](CO)C[C@@H]1[C@@H]2CC[C@]2(C)C(=O)CC[C@@H]12` (mixture of isomers) [I-cl, (E,Z) 3-(3-N-Methylaminopropoxyimino)-6α-hydroxymethylandrostan-17-one hydrochloride] showed a Maximum dose infused of 42.5 µmol/kg.

Staying with this data set, now noted: slow i.v. infusion over 90 minutes.
Regarding `CNCCCON=C1CC[C@@]2(C)[C@H](C1)[C@@H](CO)C[C@@H]1[C@@H]2CC[C@]2(C)C(=O)CC[C@@H]12` (mixture of isomers) [I-cl, (E,Z) 3-(3-N-Methylaminopropoxyimino)-6α-hydroxymethylandrostan-17-one hydrochloride], the Dead/treated was 2/2.

The term IC50 denotes the midpoint of a concentration-inhibition curve.

These data come from patent publication US8609644B2, “Amino derivatives of androstanes and androstenes as medicaments for cardiovascular disorders” (priority 2006, dated 2013).
